{
  "source": "patent US11517577B2",
  "about": "“Fluorinated bile acid derivatives” (NZP UK LIMITED, priority 2018, dated 2022)",
  "molecular_target": "T1, Human Farnesoid X Receptor (NR1H4, FXR) (Homo sapiens, UniProt Q96RI1)",
  "T1 sequence (Q96RI1 1-486)": "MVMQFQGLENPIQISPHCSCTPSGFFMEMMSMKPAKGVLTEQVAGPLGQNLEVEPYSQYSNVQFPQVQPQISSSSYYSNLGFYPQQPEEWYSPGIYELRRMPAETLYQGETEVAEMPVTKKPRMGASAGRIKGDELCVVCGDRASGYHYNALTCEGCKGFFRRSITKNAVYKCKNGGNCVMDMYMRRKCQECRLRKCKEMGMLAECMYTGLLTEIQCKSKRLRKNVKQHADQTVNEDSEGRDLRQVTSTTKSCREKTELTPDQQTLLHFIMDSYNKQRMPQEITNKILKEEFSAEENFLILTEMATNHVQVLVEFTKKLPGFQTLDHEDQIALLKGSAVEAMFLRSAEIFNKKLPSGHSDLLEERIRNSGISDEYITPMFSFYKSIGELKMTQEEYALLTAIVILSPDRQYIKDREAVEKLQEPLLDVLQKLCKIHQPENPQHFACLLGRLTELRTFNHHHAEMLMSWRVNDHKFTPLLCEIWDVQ",
  "assay": "FXR reporter assay, EC50 and efficacy (Indigo Biosciences luciferase reporter cells)",
  "type": "cell-based",
  "conditions": "for Efficacy: maximum point on the dose response curve, GW4064 designated as 100%",
  "procedure": "The compounds of the invention were assayed for agonist activity at the FXR receptor.\nDose-response assays were performed as described in the technical manual of the Human Farnesoid X Receptor (NR1H4, FXR) Reporter Assay System (Indigo Biosciences Human Farnesoid X Receptor (NR1H4, FXR) Reporter Assay System, Technical Manual (version 7.1b), at the World Wide Web (www)indiqobiosciences.com).\nFXR reporter cells consisting of an FXR-responsive promoter gene functionally linked to the luciferase gene were defrosted and seeded into a 96-well plate and these cells were immediately dosed with the test compounds at different concentrations (10-0.05 μM) according to the manufacturer's protocol. […] Following this, the induction of luciferase activity, which is the measure of the agonist activity, was quantified by using luminometer (TECAN) according to the manufacturer's protocol.",
  "data": [
    {"smiles": "CC[C@H]1[C@@H](O)C2C3CCC([C@H](C)CCNC(=O)NS(=O)(=O)c4ccccc4)[C@@]3(C)CCC2[C@@]2(C)CC[C@@H](O)C[C@@H]12", "note": "(stereo partly drawn) [Comparative compound A, N,N′-(3α,7α-Dihydroxyl-6α-ethyl-24-nor-5β-cholan-23-yl)-benzene sulfonyl urea, reference compound]", "values": [
      {"measurement": "EC50", "result": 32, "unit": "nM"},
      {"measurement": "Efficacy", "result": 147, "unit": "%"}
    ]},
    {"smiles": "CC[C@H]1[C@@H](O)[C@@H]2[C@H](CC[C@]3(C)[C@@H]([C@H](C)CCC(=O)NS(=O)(=O)c4cccc(F)c4)CC[C@@H]23)[C@@]2(C)CC[C@@H](O)[C@H](F)[C@@H]12", "note": "[Compound 16, N-(3α,7α-Dihydroxyl-4β-fluoro-6α-ethyl-5β-cholan-24-oyl)-m-fluorophenyl sulfonamide]", "values": [
      {"measurement": "EC50", "result": 46, "unit": "nM"},
      {"measurement": "Efficacy", "result": 143, "unit": "%"}
    ]},
    {"smiles": "CC[C@@H]1[C@@H]2[C@@H](F)[C@H](O)CC[C@]2(C)C2CC[C@@]3(C)C(CCC3[C@H](C)CCNC(=O)NS(=O)(=O)c3cccc(C)c3)C2[C@@H]1O", "note": "(stereo partly drawn) [Compound 4, N,N′-(3α,7α-Dihydroxyl-4β-fluoro-6α-ethyl-24-nor-5β-cholan-23-yl)-m-toluene sulfonyl urea]", "values": [
      {"measurement": "EC50", "result": 23, "unit": "nM"},
      {"measurement": "Efficacy", "result": 148, "unit": "%"}
    ]},
    {"smiles": "CC[C@H]1[C@@H](O)[C@@H]2[C@H](CC[C@]3(C)[C@@H]([C@H](C)CCC(=O)NS(=O)(=O)c4cccc(C(F)(F)F)c4)CC[C@@H]23)[C@@]2(C)CC[C@@H](O)[C@H](F)[C@@H]12", "note": "[Compound 19, N-(3α,7α-Dihydroxyl-4β-fluoro-6α-ethyl-5β-cholan-24-oyl)-3-trifluoromethylphenyl sulfonamide]", "values": [
      {"measurement": "EC50", "result": 50, "unit": "nM"},
      {"measurement": "Efficacy", "result": 136, "unit": "%"}
    ]},
    {"smiles": "CC[C@@H]1[C@@H]2[C@@H](F)[C@H](O)CC[C@]2(C)C2CC[C@@]3(C)C(CCC3[C@H](C)CCNC(=O)NS(=O)(=O)c3ccc(C(C)(C)C)cc3)C2[C@@H]1O", "note": "(stereo partly drawn) [Compound 3, N,N′-(3α,7α-Dihydroxyl-4β-fluoro-6α-ethyl-24-nor-5β-cholan-23-yl)-4-(tert-butyl) benzene sulfonyl urea]", "values": [
      {"measurement": "EC50", "result": 19, "unit": "nM"},
      {"measurement": "Efficacy", "result": 151, "unit": "%"}
    ]},
    {"smiles": "CC[C@@H]1[C@@H]2[C@@H](F)[C@H](O)CC[C@]2(C)C2CC[C@@]3(C)C(CCC3[C@H](C)CCNC(=O)NS(=O)(=O)c3ccccc3C)C2[C@@H]1O", "note": "(stereo partly drawn) [Compound 5, N,N′-(3α,7α-Dihydroxyl-4β-fluoro-6α-ethyl-24-nor-5β-cholan-23-yl)-o-toluene sulfonyl urea]", "values": [
      {"measurement": "EC50", "result": 28, "unit": "nM"},
      {"measurement": "Efficacy", "result": 166, "unit": "%"}
    ]},
    {"smiles": "CC[C@@H]1[C@@H]2[C@@H](F)[C@H](O)CC[C@]2(C)C2CC[C@@]3(C)C(CCC3[C@H](C)CCNC(=O)NS(=O)(=O)c3ccc(C(F)(F)F)cc3)C2[C@@H]1O", "note": "(stereo partly drawn) [Compound 9, N,N′-(3α,7α-Dihydroxyl-4β-fluoro-6α-ethyl-24-nor-5β-cholan-23-yl)-p-(trifluoromethyl)benzene sulfonyl urea]", "values": [
      {"measurement": "EC50", "result": 50, "unit": "nM"},
      {"measurement": "Efficacy", "result": 158, "unit": "%"}
    ]},
    {"smiles": "CC[C@@H]1[C@@H]2[C@@H](F)[C@H](O)CC[C@]2(C)C2CC[C@@]3(C)C(CCC3[C@H](C)CCNC(=O)NS(=O)(=O)c3cccc(F)c3)C2[C@@H]1O", "note": "(stereo partly drawn) [Compound 7, N,N′-(3α,7α-Dihydroxyl-4β-fluoro-6α-ethyl-24-nor-5β-cholan-23-yl)-m-fluorobenzene sulfonyl urea]", "values": [
      {"measurement": "EC50", "result": 38, "unit": "nM"},
      {"measurement": "Efficacy", "result": 131, "unit": "%"}
    ]},
    {"smiles": "CC[C@H]1[C@@H](O)[C@@H]2[C@H](CC[C@]3(C)[C@@H]([C@H](C)CCC(=O)NS(=O)(=O)c4ccccc4F)CC[C@@H]23)[C@@]2(C)CC[C@@H](O)[C@H](F)[C@@H]12", "note": "[Compound 17, N-(3α,7α-Dihydroxyl-4β-fluoro-6α-ethyl-5β-cholan-24-oyl)-o-fluorophenyl sulfonamide]", "values": [
      {"measurement": "EC50", "result": 34, "unit": "nM"},
      {"measurement": "Efficacy", "result": 121, "unit": "%"}
    ]},
    {"smiles": "CC[C@@H]1[C@@H]2[C@@H](F)[C@H](O)CC[C@]2(C)C2CC[C@@]3(C)C(CCC3[C@H](C)CCNC(=O)NS(=O)(=O)c3ccccc3F)C2[C@@H]1O", "note": "(stereo partly drawn) [Compound 8, N,N′-(3α,7α-Dihydroxyl-4β-fluoro-6α-ethyl-24-nor-5β-cholan-23-yl)-o-fluorobenzene sulfonyl urea]", "values": [
      {"measurement": "EC50", "result": 43, "unit": "nM"},
      {"measurement": "Efficacy", "result": 159, "unit": "%"}
    ]},
    {"smiles": "CC[C@H]1[C@@H](O)[C@@H]2[C@H](CC[C@]3(C)[C@@H]([C@H](C)CCC(=O)NS(C)(=O)=O)CC[C@@H]23)[C@@]2(C)CC[C@@H](O)[C@H](F)[C@@H]12", "note": "[Comparative compound C, N-(3α,7α-Dihydroxyl-4β-fluoro-6α-ethyl-5β-cholan-24-oyl)-methyl sulfonamide, reference compound]", "values": [
      {"measurement": "EC50", "result": 192, "unit": "nM"},
      {"measurement": "Efficacy", "result": 130, "unit": "%"}
    ]},
    {"smiles": "CC[C@H]1[C@@H](O)[C@@H]2[C@H](CC[C@]3(C)[C@@H]([C@H](C)CCC(=O)NS(=O)(=O)c4ccc(F)cc4)CC[C@@H]23)[C@@]2(C)CC[C@@H](O)[C@H](F)[C@@H]12", "note": "[Compound 15, N-(3α,7α-Dihydroxyl-4β-fluoro-6α-ethyl-5β-cholan-24-oyl)-p-fluorobenzene sulfonamide]", "values": [
      {"measurement": "EC50", "result": 38, "unit": "nM"},
      {"measurement": "Efficacy", "result": 98, "unit": "%"}
    ]},
    {"smiles": "CC[C@@H]1[C@@H]2[C@@H](F)[C@H](O)CC[C@]2(C)C2CC[C@@]3(C)C(CCC3[C@H](C)CCNC(=O)NS(=O)(=O)c3ccc(OC(F)(F)F)cc3)C2[C@@H]1O", "note": "(stereo partly drawn) [Compound 12, N,N′-(3α,7α-Dihydroxyl-4β-fluoro-6α-ethyl-24-nor-5β-cholan-23-yl)-4-(trifluoromethoxy)benzene sulfonyl urea]", "values": [
      {"measurement": "EC50", "result": 27, "unit": "nM"},
      {"measurement": "Efficacy", "result": 176, "unit": "%"}
    ]},
    {"smiles": "CC[C@@H]1[C@@H]2[C@@H](F)[C@H](O)CC[C@]2(C)C2CC[C@@]3(C)C(CCC3[C@H](C)CCNC(=O)NS(=O)(=O)c3ccc(OC)cc3)C2[C@@H]1O", "note": "(stereo partly drawn) [Compound 13, N,N′-(3α,7α-Dihydroxyl-4β-fluoro-6α-ethyl-24-nor-5β-cholan-23-yl)-p-methoxybenzene sulfonyl urea]", "values": [
      {"measurement": "EC50", "result": 48, "unit": "nM"},
      {"measurement": "Efficacy", "result": 250, "unit": "%"}
    ]},
    {"smiles": "CC[C@@H]1[C@@H]2[C@@H](F)[C@H](O)CC[C@]2(C)C2CC[C@@]3(C)C(CCC3[C@H](C)CCNC(=O)NS(=O)(=O)c3ccc(C)cc3)C2[C@@H]1O", "note": "(stereo partly drawn) [Compound 1, N,N′-(3α,7α-Dihydroxyl-4β-fluoro-6α-ethyl-24-nor-5β-cholan-23-yl)-p-toluene sulfonyl urea]", "values": [
      {"measurement": "EC50", "result": 18, "unit": "nM"},
      {"measurement": "Efficacy", "result": 193, "unit": "%"}
    ]},
    {"smiles": "CC[C@@H]1[C@@H]2[C@@H](F)[C@H](O)CC[C@]2(C)C2CC[C@@]3(C)C(CCC3[C@H](C)CCNC(=O)NS(=O)(=O)c3ccccc3C(F)(F)F)C2[C@@H]1O", "note": "(stereo partly drawn) [Compound 11, N,N′-(3α,7α-Dihydroxyl-4β-fluoro-6α-ethyl-24-nor-5β-cholan-23-yl)-o-(trifluoromethyl)benzene sulfonyl urea]", "values": [
      {"measurement": "EC50", "result": 123, "unit": "nM"},
      {"measurement": "Efficacy", "result": 104, "unit": "%"}
    ]},
    {"smiles": "CC[C@@H]1[C@@H]2[C@@H](F)[C@H](O)CC[C@]2(C)C2CC[C@@]3(C)C(CCC3[C@H](C)CCNC(=O)NS(=O)(=O)c3ccc(F)cc3)C2[C@@H]1O", "note": "(stereo partly drawn) [Compound 6, N,N′-(3α,7α-Dihydroxyl-4β-fluoro-6α-ethyl-24-nor-5β-cholan-23-yl)-p-fluorobenzene sulfonyl urea]", "values": [
      {"measurement": "EC50", "result": 32, "unit": "nM"},
      {"measurement": "Efficacy", "result": 187, "unit": "%"}
    ]},
    {"smiles": "CC[C@H]1[C@@H](O)[C@@H]2[C@H](CC[C@]3(C)[C@@H]([C@H](C)CCC(=O)NS(=O)(=O)C4CC4)CC[C@@H]23)[C@@]2(C)CC[C@@H](O)[C@H](F)[C@@H]12", "note": "[Comparative compound B, N-(3α,7α-Dihydroxyl-4β-fluoro-6α-ethyl-5β-cholan-24-oyl)-cyclopropyl sulfonamide, reference compound]", "values": [
      {"measurement": "EC50", "result": 158, "unit": "nM"},
      {"measurement": "Efficacy", "result": 132, "unit": "%"}
    ]}
  ]
}
